Measured values from US20010014345A1, “MATERIAL, METHOD AND APPARATUS FOR INHIBITING BACTERIAL GROWTH IN AN AQUEOUS MEDIUM” (priority 1995, published 2001).
Several values for one entry are separate records, joined by “and”; a condition that tells them apart may be missing. Equal entries are not always repeated. Where two headings read alike, the source gives them in different places.

Tests used:
[1] = system: Pseudomonas aeruginosa; experiment: Biocide efficiency (B.E.) of immobilised biocides in recirculating column test; type: cell-based
[2] = physchem
[3] = system: Pseudomonas aeruginosa; experiment: Recirculating column test of immobilised biocide (active beads), viable bacterial counts / growth curve; type: cell-based; conditions: active beads on Amberlite XAD-4 or XAD-2, 10x1 cm column, after 24 hours, FIG. 2
[4] = Presence or absence of free biocide in filter-sterilised culture after contact with active beads (MS and/or HPLC; leaching); type: physicochemical
[5] = Partition coefficients between octanol and water by UV/visible absorption
[6] = column length 10 cm, biocide immobilised on Amberlite XAD-4, 24 h, 30° C., 13.5 ml/min

## O=[N+]([O-])C(Br)(CO)CO [Bronopol]
[1]; [6]
  B.E. (t-24 h): −0.80
[2]
  logP: 0.18

## CCCCCCCCn1sc2ccccc2c1=O [Compound 1, 2-n-octylbenzoisothiazolin-3-one]
[1]; [6]
  B.E. (t-24 h): 0.48
[3]
  bacterial population versus blank bead controls: significantly lower

## CCCCCCCCCCCCCCCCn1sc2ccccc2c1=O [Compound 2, 2-n-hexadecyl-benzoisothiazolin-3-one]
[1]; column length 10 cm, biocide immobilised on Amberlite XAD-2, 24 h, 30° C., 13.5 ml/min
  B.E. (t-24 h): 0.84
[1]; [6]
  B.E. (t-24 h): 0.68 and 1.02 and 0.82 and 0.91
[1]; column length 20 cm, biocide immobilised on Amberlite XAD-4, 24 h
  B.E. (t-24 h): 0.99 and 0.64 and 0.75
[1]; column length 30 cm, biocide immobilised on Amberlite XAD-4, 24 h
  B.E. (t-24 h): 0.64 and 0.86
[1]; column length 40 cm, biocide immobilised on Amberlite XAD-4, 24 h
  B.E. (t-24 h): 0.90

## CCCCCCCCCCCCCCCCCCn1sc(Cl)cc1=O [Compound 4, 5-chloro-2-n-octadecyl-isothiazolin-3-one]
[1]
  B.E. (t-24 h): 0.70 and 0.82 and 0.73 and 0.99 and 0.98

## CCCCCCCCn1sccc1=O [Compound 5, 2-n-octyl-isothiazolin-3-one]
[1]
  B.E. (t-24 h): 0.80 and 0.60
[4]
  Present (MS): free biocide in solution: trace

## CCCCCCCCCCCC[N+](C)(C)CCOc1ccccc1 [Domiphen]
[2]
  logP: 1.7

## Cn1sc2c(c1=O)CCC2 [Promexal]
[5]; 25° C., UV/visible absorption
  P (partition coefficient between octanol and water): ˜4.5
[5]; n-octanol/water
  logP: 0.6

## O=c1[nH]sc2ccccc12 [Proxel]
[2]
  logP: -1.3
